Where “and” joins values, the source holds several entries; their conditions need not be identical. Identical values can stand only once. Entries after “also recorded” stand apart in the source; their conditions may differ. Counter-ions that a name gives are not always drawn. Like-named read-outs stand apart in the source and are kept apart here.
What was measured:
[1] = system: Type II collagen; assay: ELISA immunoassay of antibody to Type II collagen in sera of collagen-immunized rats; format: in vivo, Female Wistar outbred rats
Method: (§1) Female Wistar outbred rats (age 10-12 weeks) were obtained from Charles River Breeding Laboratories Inc., Wilmington, Mass.) housed in metal cages and fed standard rodent chow with water ad libitum.
(§2) Immunization was performed using the method outlined by Stuart et al. (Stuart et al., supra). Type II collagen was dissolved in 0.01N acetic acid at a concentration of 2 mg/ml stirring overnight at 4° C. An emulsion was made using incomplete Freund's adjuvant (Difco) and each collagen solution at a ratio of 6:4. Eighteen Wistar rats were given 0.1 ml of a cold emulsion of collagen II by intradermal injection of the left hind footpad and booster injections in the tail at one week and again on day 36.
(§3) Dimethylglycine mixed in distilled water was administered intraperitoneally to half of the rats in the study at a dosage rate of 100 mg/kg body weight per day, beginning on the day of collagen immunization. Control rats were injected with only distilled water. Rats were sacrificed at the time of the occurrence of arthritis and were bled by cardiac puncture. Rats surviving at day 30 were bled by the tail vein and were bled again at the end of the study (day 51).
Sera were obtained by cardiac puncture on the day arthritis developed or at the end of the study (day 51). An enzyme-linked immunoassay (ELISA) technique adapted from the methods described by Stuart et al. supra was used to measure antibody titres.
Flat bottom 96 well microtitre plates (Corning) were coated with collagen as follows: Collagen was dissolved in 0.4 ionic strength phosphate buffer, pH 7.6 by stirring overnight at 4° C. The collagen concentration was adjusted to 5 μg/ml determined by the Lowry method (Lowry, O. et al., J. Biol. Chem. 193, 265 [1951]). Each well received 100 μl of collagen solution and the plates were incubated at 4° C. overnight. The coating solution was removed by inverting the plate and sharply snapping the wrist to remove remaining droplets. To reduce nonspecific absorption a blocker of phosphate-buffered saline (PBS) (pH 7.4) containing 0.5% ovalbumin (Grade V), Sigma Chemical Co., St. Louis, Mo.) was added and incubated for 1 hr. The plates were washed with PBS-Tween (containing […]) three times and used immediately. The sera were diluted with PBS-Tween containing 0.5% ovalbumin and aliquots of 100 μl were added to the Type II collagen-coatad microtitre plates. The plates were incubated at 4° C. overnight and washed three times with PBS-Tween. One hundred μl of a 1:3000 dilution of rabbit anti-rat IgG peroxidase conjugate (Sigma) was added and incubated for 4 hr at room temperature. Excess conjugate was removed by washing three times with PBS-Tween and the amount of conjugate bound was determined by adding orthophenylenediamine (OPD) (Sigma Chemical Co.) as a substrate. The substrate was prepared by adding 40 mg of OPD to […] of 0.224M citric acid 0.05M dibasic sodium phosphate pH 5.0 and adding 400 μl of 3% hydrogen peroxide. After incubation with the substrate for 20 min the microtitre plates were read for absorbance at 490 nm using a Mini Reader II (Dynatech).

[2] = system: arthritis (Type II collagen-induced); assay: Type II collagen-induced arthritis in rats, arthritic swelling of hindpaws (Example 1); format: in vivo, Female Wistar outbred rats; parameters: key to rats which showed arthritic swelling (mark): *: Indicates rats which showed arthritic swelling; details: 100 mg/kg/day i.p.
Method: as §1, §2, §3
Animals in both groups were observed daily for the onset of arthritis. Swelling of the hindpaws was quantitated by measuring the thickness of the ankle from medial to lateral malleolus with a caliper (as done by Trentham et al. supra).

[3] = system: arthritis (Type II collagen-induced); assay: Prevention of arthritis in collagen-injected rats (Example 2); format: in vivo
Method: Eighteen rats were divided into two groups. Nine animals were injected i.p. with DMG (100 mg/kg body weight) daily, starting on day 14 prior to administration of collagen II, and continuing for 30 days after collagen II injection or until severe arthritic lesions were observed, if earlier. The remaining nine rats were similarly injected i.p. with sterile water. In this experiment, as compared with Example 1, the source of the collagen II was changed from a commercial preparation (Chemicon Corp., Temecula, Calif.) to a fresh preparation prepared by the process according to Trentham et al., 1977, supra.

[4] = system: rheumatoid arthritis; assay: Treatment of rheumatoid arthritis in humans (Example 3); format: in vivo, human
Method: Three patients, diagnosed as having rheumatoid arthritis in one or both knees with symptoms of acute pain, inflammation, joint tenderness and morning stiffness, were treated orally with 500 mg of DMG taken four times daily. The test period lasted for six weeks, during which time no other antiinflammatory drugs were taken.

[5] = system: gouty arthritis; assay: Treatment of gouty arthritis in humans (Example 4); format: in vivo, human; details: 250 mg t.i.d.
Method: DMG was administered to two patients suffering from gouty arthritis, at a dosage of 250 mg t.i.d. over a three week period.

[6] = system: chronic obstructive pulmonary disease (heaves); assay: Treatment of chronic obstructive pulmonary disease in horses (Example 5); format: in vivo, horses (standardbred)
Method: Three standardbred horses, ages 3 to 7 years, were diagnosed as having chronic obstructive pulmonary disease, also known as equine asthma or the heaves. Clinical signs included frequent coughing, nasal discharge, increased respiratory rate and wheezing in the chest area. The horses were treated orally with 1.5 g of DMG hydrochloride twice daily for ten days.

[7] = system: lymphocytes; details: sickle cell disease and diabetes patients; three lectins; cited from earlier work
[8] = system: interferon; details: cited from earlier work
[9] = system: lactic acid; details: intravenous, severe surgical stress; cited from earlier work
[10] = high-dose rats; cited from earlier work
[11] = cited from earlier work
[12] = human tests; cited from earlier work
[13] = greyhounds given DMG; cited from earlier work
[14] = system: interferon; details: cited from earlier work; remark: listed apart in the source
[15] = system: lymphocytes; details: lymphocytes from DMG-fed animals; cited from earlier work
[16] = system: hybridoma antibody producing cells; details: in vitro cell cultures; cited from earlier work
[17] = system: B cells; details: research on humans; cited from earlier work
[18] = system: T cells and macrophages; details: research on humans; cited from earlier work
[19] = system: B cells; details: early research; cited from earlier work
[20] = system: T cells and macrophages; details: early research; cited from earlier work
[21] = animals under extreme stress; cited from earlier work
[22] = antibody titre, individual rat, DMG 100 mg/kg/day i.p., absorbance at 490 nm
[23] = mean, DMG-treated rats, 100 mg/kg/day i.p.
[24] = after 5 days, 1.5 g orally twice daily

**Q.** What does the source list for `CN(C)CC(=O)O` [DMG, N,N-dimethylglycine]?
**A.** antibody titres compared with control animals ([1]; 100 mg/kg/day i.p., rats immunized with Type II collagen): developed higher antibody titres than control animals; ELISA Reading, serum from day 17 [1, 22]: .78; ELISA Reading, serum from day 30 [1, 22]: .47 and .00 and .28 and .32 and .33 and .20 and .17 and .48; ELISA Reading, serum from day 51 [1, 22]: .60 and .88 and .18 and .35 and .90 and .56 and .64; Mean ELISA Reading, serum from day 17 [1, 23]: .78; Mean ELISA Reading, serum from day 30 [1, 23]: .28; Mean ELISA Reading, serum from day 51 [1, 23]: .54; arthritic swellings of the hindpaws compared with non-DMG-treated group ([2]; beginning on the day of collagen immunization): did not develop to the same extent the arthritic swellings of the hindpaws; rats which showed arthritic swelling (mark) ([2]; individual rat): *; animals developing characteristic inflammation and swelling, of nine ([3]; 100 mg/kg i.p. daily from day 14 before collagen II, all control animals developed arthritis): only two developed the characteristic inflammation and swelling to any extent; development of inflammation and swelling associated with Type II collagen-induced arthritis ([3]; 100 mg/kg/day, starting on day 14 prior to injection): either does not develop to the same extent, or does not develop at all; fatigue and night pain ([4]; 500 mg orally four times daily): All three patients reported less fatigue and less night pain; improvement in inflammation, pain and morning stiffness ([4]; after 21 days, 500 mg orally four times daily): two patients reported significant improvement in reduction of inflammation, pain and morning stiffness; also recorded: the third patient reported a lesser improvement; additional improvement ([4]; last three weeks of therapy (six weeks)): Additional improvement was noted in all three patients; time after which benefits were noted [5]: 7 to 10 days; time to maximal benefits [5]: maximal after two weeks; pain, redness and inflammation ([5]; three weeks): Less pain, redness and inflammation were noted; effect on inflammatory condition, heaves in horses ([6]; summary statement in description): demonstrated to reduce the inflammatory condition and to be an effective therapy for heaves in horses; blast transformation activity of lymphocytes [7]: approximately doubled; interferon production [8]: effective in doubling interferon production; also recorded: will increase interferon production; lactic acid production [9]: decreased lactic acid production; adaptation to hypoxia [10]: better adaptation to hypoxia; blood lactic acid level following training ([11]; DMG in the diet): lower blood lactic acid level following training; appetite, attitude and recovery from racing and training ([11]; trainers' observation, versus controls): more aggressive, to have better appetites and attitudes and to recover faster from racing and training than the controls; exhaustion time [12]: increase in exhaustion time; immune response (antibody production and lymphocyte generation) [12]: enhancement of the body's immune response; racing performance [13]: improvement in racing performance; recovery after races [13]: better recovery after races with less fatigue or muscle stiffness; interferon level ([14]; primary response, DMG-fed, none detected in immunized controls): high levels of interferon was present; interferon level ([14]; secondary response): Interferon was not present; lymphocyte activation / proliferation [15]: can stimulate the cellular immune system by lymphatic proliferation; production of antibodies [16]: increases the production of antibodies; antibody responses of B cells [17]: much higher antibody responses; activity of T cells and macrophages [18]: enhances the activity of T cells and macrophages; antibody responses of B cells (humoral branch) [19]: much higher antibody responses; activity of T cells and macrophages (cellular immunity branch) [20]: potentiates the activity of T cells and macrophages; lactic acid levels [21]: decrease lactic acid levels; oxygen utilization [21]: increase oxygen utilization

**Q.** With `CN(C)CC(=O)O` [DMG-HCl] as the molecule, how does the “breathing and nasal discharge” value [6, 24] read?
**A.** improved breathing and less nasal discharge

**Q.** What about the symptomatic relief [6, 24] of the same molecule?
**A.** All three horses showed symptomatic relief after 5 days

**Q.** And the “clearing of air passages” value ([6]; end of 10 days, 1.5 g orally twice daily)?
**A.** the air passages of all three horses had cleared
